Assay results reported in patent US20220251109A1, “OXAAZAQUINAZOLINE-7(8H)-KETONE COMPOUND, PREPARATION METHOD THEREFOR AND PHARMACEUTICAL APPLICATION THEREOF” (GENFLEET THERAPEUTICS (SHANGHAI) INC., priority 2019, published 2022).

Tests used:
[1] = test system: NCI-H358 cells (Kras G12C mutation); experiment: Cell proliferation inhibition experiment, 3D model, CellTiter-Glo (NCI-H358); format: cell-based, human; conditions: NCI-H358, 3D sphere plate, 5 days, 2% FBS
Experimental: (§1) NCI-H358 was a human non-small cell lung cancer cell line with Kras G12C mutation, cultured in 10% FBS RPMI-1640 medium; A549 was a human lung adenocarcinoma cell line with Kras G12S mutation, cultured in 10% FBS F-12K medium. The cells in the logarithmic growth phase was taken, digested with trypsin EDTA, collected and counted, and H358 was adjusted to 1.8E4 cells/ml using 2% FBS RPMI-1640 medium, and A549 was adjusted to 8.9E3 cells/ml using 2% FBS F-12K medium; 800 (45 μl) H358 or 400 (45 μl) A549 cells were seeded in a 384-well sphere plate respectively, cultured overnight to establish a 3D cell model. DMSO was used to prepare 1000× compound 3.16-fold gradient concentration stock solution, and 2% FBS medium was used to dilute 100-fold to 10× compound stock solution. On the second day after cell seeding, 5 μl 10× compound stock solution was added to each cell culture well, the final concentration was 1×, and DMSO content was 0.1%. DMSO was used as the experimental control (control) and 2% FBS medium as the blank control (blank). After the compound and cells were added and cultured for 5 days, 25 μl CellTiter-Glo working solution was added to each well, mixed at 400 rpm and incubated for 30 minutes. After 30 minutes at room temperature, 40 μl of the mixture was transferred to a 384-well plate with a non-transparent white bottom, the luminescence chemiluminescence value was read, and the cells proliferation inhibition rate IR (%)=(RLU control-RLU compound)/(RLU control-RLU blank)×100% was calculated, Prism 6 four-parameter method was used to fit the compound's gradient dilution concentration and the corresponding cell proliferation inhibition rate, and the IC50 value was calculate.

[2] = test system: A549 cells (Kras G12S mutation); experiment: Cell proliferation inhibition experiment, 3D model, CellTiter-Glo (A549); format: cell-based, human; conditions: A549, 3D sphere plate, 5 days, 2% FBS
Experimental: as §1

Row | Compound | IC50 ([1]; Homo sapiens, NCI-H358, 120 h) | IC50 ([2]; Homo sapiens, A549, 120 h) | IC50 [1] | IC50 [2]
1 | C=CC(=O)N1CCN2c3nc(=O)n(-c4c(C)ccnc4C(C)C)c4cc(-c5c(C)ccc6[nH]ncc56)cc(c34)OCCC2C1 (stereo not drawn) [Compound Z22] | 118 nM | > 10000 nM |  | 
2 | C=CC(=O)N1CCN2c3nc(=O)n(CC(C)C)c4cc(-c5c(O)cccc5F)c(Cl)c(c34)OC[C@@H]2C1 [Compound Z32] | 308 nM | 23500 nM |  | 
3 | C=CC(=O)N1CCN2c3nc(=O)n(-c4c(C#N)cnn4C(C)(C)C)c4nc(-c5ccccc5F)c(Cl)c(c34)OC[C@H]2C1 (single isomer, unassigned) [Compound Z109-2] |  |  | 106 nM | 9780 nM
4 | C=CC(=O)N1CCN2c3nc(=O)n(C4CC4)c4cc(-c5c(O)cccc5F)cc(c34)OCCC2C1 (stereo not drawn) [Compound Z28] | 184 nM | > 10000 nM |  | 
5 | C=CC(C)N1CCN2c3nc(=O)n(-c4c(C)ccnc4C(C)C)c4nc(-c5cnccc5C)c(Cl)c(c34)OC[C@@H]2C1 (stereo partly drawn) [Compound Z81] | 204 nM | > 10000 nM |  | 
6 | C=CC(=O)N1CCN2c3nc(=O)n(-c4c(C)ncnc4C(C)C)c4cc(-c5c(C)ccc6[nH]ncc56)c(Cl)c(c34)OC[C@@H]2C1 (single isomer, unassigned) [Compound Z45-1] |  | > 10000 nM | 3 nM | 
7 | C=CC(=O)N1CCN2c3nc(=O)n(-c4c(C)ccnc4C(C)C)c4nc(-c5c(F)cccc5C(F)(F)F)c(Cl)c(c34)OC[C@@H]2C1 [Compound Z70] | 42 nM | > 10000 nM |  | 
8 | C=CC(=O)N1CCN2c3nc(=O)n(-c4c(C)ccnc4C(C)C)c4nc(-c5ccccc5C(C)C)c(Cl)c(c34)OC[C@@H]2C1 [Compound Z62] | 6 nM | > 10000 nM |  | 
9 | [2H]C([2H])([2H])Oc1cccc(F)c1-c1nc2c3c(nc(=O)n2-c2c(C)ccnc2C(C)C)N2CCN(C(=O)C=C)C[C@@H]2COc3c1F (single isomer, unassigned) [Compound Z100-2] |  |  | 31 nM | > 10000 nM
10 | C=CC(=O)N1CCN2c3nc(=O)n(-c4c(C)ccnc4C(C)C)c4nc(-c5cccc(F)c5)c(Cl)c(c34)OC[C@@H]2C1 [Compound Z48] | 22 nM | > 10000 nM |  | 
11 | C=CC(=O)N1CCN2c3nc(=O)n(-c4c(C)ccnc4C(C)C)c4cc(-c5c(C)ccc6[nH]ncc56)cc(c34)OC[C@H]2C1 [Compound Z18, (R)-2-acryloyl-8-(2-isopropyl-4-methylpyridin-3-yl)-10-(5-methyl-1H-indazol-4-yl)-1,2,3,4,13,13a-hexahydropyrazino[2′,1′:3,4][1,4]oxazepine[5,6,7-de]quinazolin-7 (8H)-one] | 107 nM | 12400 nM |  | 
12 | C=CC(=O)N1CCN2c3nc(=O)n(-c4c(C)ccnc4C(C)C)c4nc(-c5c(O)cccc5F)c(Cl)c(c34)OC[C@H]2C1 (single isomer, unassigned) [Compound Z23-2] |  |  | 21 nM | > 10000 nM
13 | C=CC(=O)N1CCN2c3nc(=O)n(-c4c(C)ccnc4C(C)C)c4cc(-c5c(C)ccc6[nH]ncc56)cc(c34)OC[C@@H]2C1 [Compound Z19, (S)-2-acryloyl-8-(2-isopropyl-4-methylpyridin-3-yl)-10-(5-methyl-1H-indazol-4-yl)-1,2,3,4,13,13a-hexahydropyrazino[2′,1′:3,4][1,4]oxazepine[5,6,7-de]quinazolin-7 (8H)-one] |  |  | 68 nM | 46400 nM
14 | C=CC(=O)N1CCN2c3nc(=O)n(-c4c(C)ccnc4C(C)C)c4nc(-c5c(O)cccc5F)cc(c34)OC[C@H]2C1 (single isomer, unassigned) [Compound Z25-1] |  |  | 46 nM | > 10000 nM
15 | C=CC(=O)N1CCN2c3nc(=O)n(CC4CC4)c4cc(-c5c(O)cccc5F)c(Cl)c(c34)OC[C@@H]2C1 [Compound Z37-2] | 276 nM | 29500 nM |  | 
16 | C=CC(=O)N1CCN2c3nc(=O)n(-c4c(C)ccnc4C(C)C)c4cc(-c5ncccc5F)c(Cl)c(c34)OC[C@@H]2C1 [Compound Z35] | 164 nM | > 10000 nM |  | 
17 | C=CC(=O)N1CCN2c3nc(=O)n(-c4c(C)ccnc4C(C)C)c4nc(-c5c(O)cccc5F)cc(c34)OC[C@H]2C1 (atropisomer, axis not shown) [Compound Z25-2] |  |  | 281 nM | > 10000 nM

Row | Compound | IC50 ([1]; Homo sapiens, NCI-H358, 120 h) | IC50 ([2]; Homo sapiens, A549, 120 h) | IC50 [1] | IC50 [2]
18 | C=CC(=O)N1CCN2c3nc(=O)n(-c4c(C)ccnc4C(C)C)c4nc(-c5c(O)cccc5F)c(Cl)c(c34)OC[C@H]2C1 [Compound Z23, (5aR)-7-acryloyl-3-chloro-2-(2-fluoro-6-hydroxyphenyl)-12-(2-isopropyl-4-methylpyridin-3-yl)-5,5a,6,7,8,9-hexahydro-4-oxo-1,7,9a,10,12-pentazabenzo[4,5] cyclohepta[1,2,3-de]naphthalen-11 (12H)-one] | 2 nM | > 10000 nM |  | 
19 | C=CC(=O)N1CCN2c3nc(=O)n(-c4c(C)ccnc4C(C)C)c4cc(-c5c(C)ccc6[nH]ncc56)cc(c34)OC[C@@H]2C1 (atropisomer, axis not shown) [Compound Z19-1] |  |  | 321 nM | 6990 nM
20 | C=CC(=O)N1CCN2c3nc(=O)n(-c4c(C)ccnc4C(C)C)c4nc(-c5ccc(F)cc5)c(Cl)c(c34)OC[C@@H]2C1 [Compound Z50] | 50 nM | > 10000 nM |  | 
21 | C=CC(=O)N1CCN2c3nc(=O)n(-c4c(C)ccnc4C(C)C)c4cc(-c5c(O)cccc5F)cc(c34)OC[C@@H]2C1 [Compound Z15, (S)-2-acryloyl-10-(2-fluoro-6-hydroxyphenyl)-8-(2-isopropyl-4-methylpyridin-3-yl)-1,2,3,4,13,13a-hexahydropyrazino[2′,1′:3,4][1,4]oxazepine[5,6,7-de]quinazolin-7 (8H)-one] |  |  | 36 nM | > 10000 nM
22 | C=CC(=O)N1CCN2c3nc(=O)n(-c4c(C)ccnc4C(C)C)c4nc(-c5c(F)cc(F)cc5F)c(Cl)c(c34)OC[C@@H]2C1 [Compound Z56] | 11 nM | > 10000 nM |  | 
23 | C=CC(=O)N1CCN2c3nc(=O)n(-c4c(C)ccnc4C(C)C)c4nc(-c5c(O)cccc5F)cc(c34)OC[C@H]2C1 [Compound Z25, (R)-7-acryloyl-2-(2-fluoro-6-hydroxyphenyl)-12-(2-isopropyl-4-methylpyridin-3-yl)-5,5a,6,7,8,9-hexahydro-4-oxo-1,7,9a,10,12-pentazabenzo[4,5]cyclohepta[1,2,3-de]naphthalen-11 (12H)-one] |  |  | 94 nM | 24200 nM
24 | C=CC(=O)N1CCN2c3nc(=O)n(C4CC4)c4cc(-c5c(C)ccc6[nH]ncc56)cc(c34)OCCC2C1 (stereo not drawn) [Compound Z21, 2-acryloyl-8-cyclopropyl-10-(5-methyl-1H-indazol-4-yl)-1,3,4,13,14,14a-hexa hydro-2H-pyrazino[1′,2′:5,6][1,5]oxazolidine[4,3,2-de]quinazolin-7 (8H)-one] | 283 nM | > 10000 nM |  | 
25 | C=CC(=O)N1CCN2c3nc(=O)n(-c4c(C)ccnc4C(C)C)c4nc(-c5ccccc5F)c(Cl)c(c34)OC[C@@H]2C1 (single isomer, unassigned) [Compound Z46-1] |  | 8360 nM | 89 nM | 
26 | C=CC(=O)N1CCN2c3nc(=O)n(-c4c(C)ccnc4C(C)C)c4nc(-c5ccc(F)cc5F)c(Cl)c(c34)OC[C@@H]2C1 (atropisomer, axis not shown) [Compound Z49-2] |  |  | 113 nM | > 10000 nM
27 | C=CC(=O)N1CCN2c3nc(=O)n(-c4c(C)ccnc4C(C)C)c4nc(-c5cc(F)cc(F)c5O)c(Cl)c(c34)OC[C@@H]2C1 [Compound Z54] | 66 nM | > 10000 nM |  | 
28 | C=CC(=O)N1CCN2c3nc(=O)n(-c4c(C)ccnc4C(C)C)c4nc(-c5cccc(C(F)(F)F)c5F)c(Cl)c(c34)OC[C@@H]2C1 (atropisomer, axis not shown) [Compound Z57-1] |  |  | 111 nM | > 10000 nM
29 | C=CC(=O)N1CCN2c3nc(=O)n(-c4c(C)ccnc4C(C)C)c4nc(-c5cccnc5C)c(Cl)c(c34)OC[C@@H]2C1 [Compound Z78] | 254 nM | > 10000 nM |  | 
30 | C=CC(=O)N1CCN2c3nc(=O)n(-c4c(C)ccnc4C(C)C)c4cc(-c5c(O)cccc5F)c(Cl)c(c34)OC[C@H]2C1 (single isomer, unassigned) [Compound Z29-3] |  |  | 165 nM | > 10000 nM
31 | C=CC(=O)N1CCN2c3nc(=O)n(-c4c(C)ncnc4C(C)C)c4cc(-c5c(C)ccc6[nH]ncc56)c(Cl)c(c34)OC[C@@H]2C1 (single isomer, unassigned) [Compound Z45-4] |  |  | 65 nM | > 10000 nM
32 | C=CC(=O)N1CCN2c3nc(=O)n(-c4c(C)ccnc4C(C)C)c4nc(-c5ccncc5F)c(Cl)c(c34)OC[C@@H]2C1 [Compound Z69] | 95 nM | > 10000 nM |  | 
33 | C=CC(=O)N1CCN2c3nc(=O)n(-c4ccccc4C(C)C)c4cc(-c5c(C)ccc6[nH]ncc56)c(Cl)c(c34)OCC2C1 (stereo not drawn) [Compound Z1] | 2 nM | 7450 nM |  | 
